Measurements from US5079257A, “Indoloquinone compounds” (priority 1986, dated 1992).
≈ marks a conversion by molar mass, not a printed value. Where two headings read alike, the source gives them in different places.

Tests used:
Ovarian (MRI-H-207) line = type: in vivo, human
Description: The xenograft experiments have been carried by Dr. H. H. Fiebig of the University of Freiburg [Lung-NSCLC (LXGF) line, Renal line, Breast line; See: H. H. Fiebig et al., Behring Inst. Mitt., 74 343] and by Dr. E. Boven of the Free University Hospital Amsterdam [Ovarian (MRI-H-207) line; See: E. Boven et al., Cancer Res., 45, 86 (1985) and E. Boven et al., Eur. J. Clin. Oncol., 21, 1253 (1985)].
Mice: C57B1 athymic (nu/nu) female mice, 8 to 10 weeks of age were used for s.c. bilateral implantation of tumour fragments 2 mm diameter.
Treatment: E.O. 9 was dissolved in saline at a concentration of 0.5 mg/ml prior to administration. Drug doses and schedules were derived from studies in experimental murine tumour systems and from orientation studies in non-tumour-bearing nude mice. Treatment was started i.v. when tumours measured 50-150 mm^3. After randomization a group of 6-7 tumour-bearing mice was treated and a group of 5-6 tumour-bearing mice served as control.
Evaluation of efficacy: Tumours were measured twice weekly in three dimensions. Efficacy was expressed as the mean of relative tumour volume in treated animals vs. that in control animals×100 (% T/C). The optimal value was calculated within 35 days after the last injection. Toxic death (dead mice within two weeks after the last injection) were excluded from the evaluation.
MRI-H-207: An undifferentiated adenocarcinoma kindly provided by Dr. A. E. Bogden, Worcester, Mass, with a doubling time of 3-5 days.

L1210 cells = experiment: L1210 activity (bioliquid assay), cytotoxicity; type: cell-based; details: Mus musculus, L1210, 48 h
Description: The indoloquinones II (formula II) have been tested in respect of their cytotoxic activity against L1210 cells and R-1 cells (Rhabdomyosarcoma Cells) in a bioliquid assay at the department of oncology of the Free University of Amsterdam (Table I). In addition to this seven compounds (E.O. 1, E.O. 2, E.O. 4, E.O. 7, E.O. 9, E.O. 16 and E.O. 17) have been tested on L1210 activity in a clonogenic assay at TNO, Rijswijk. Further, the lowest active doses of the compounds E.O. 1, E.O. 2, E.O. 4 and E.O. 9 have been determined at TNO Rijswijk, according to the method described by Lamberts et al. [Oncology, 40, 301 (1983)]. (Table II). Eight indoloquinones (E.O. 1, E.O. 2, E.O. 4, E.O. 4A, E.O. 8, E.O. 9, E.O. 33 and E.O. 35) have been tested in a panel of five human tumour lines (TNO Rijswijk; Table III). From the latter group three indoloquinones (E.O. 1, E.O. 4 and E.O. 9) have been selected for a cytotoxicity study, involving five slowly growing human tumour lines (University of Freiburg; Table IV).
For this purpose, L1210 cells were grown, as suspension, in Falcon multi-wells (growth area: 9.6 cm^2) using RPMI supplemented with 15% FCS and 2-mercapto-ethanol (60 μmol) as medium. In this medium, the cells were continuously incubated with the compound to be tested at 37° C. in an atmosphere of 5% CO2 in humidified air for 48 hours. Thereupon they were counted on a Sysmex microcell counter (CC110).
(§1) The in vitro L1210 and R-1 activities of the indoloquinones (formula III), were also determined in the bioliquid assays as described above.

[1] = test system: R-1 cells (Rhabdomyosarcoma Cells); experiment: R-1 activity (bioliquid assay), cytotoxicity; type: cell-based; details: Rhabdomyosarcoma cell
Description: The indoloquinones II (formula II) have been tested in respect of their cytotoxic activity against L1210 cells and R-1 cells (Rhabdomyosarcoma Cells) in a bioliquid assay at the department of oncology of the Free University of Amsterdam (Table I). […] (Table II). Eight indoloquinones (E.O. 1, E.O. 2, E.O. 4, E.O. 4A, E.O. 8, E.O. 9, E.O. 33 and E.O. 35) have been tested in a panel of five human tumour lines (TNO Rijswijk; Table III).
For the determination of the R-1 activity, Rhabdomyosarcoma cells were brought into Falcon multiwells (growth area: 9.6 cm^2) (~10^6 cells per dish) containing 3 ml of Dulbecco's medium supplemented with 10% Foeto Calf Serum (FCS). […] Thereupon the drug solution was removed and the cells were covered with fresh medium. After 48 hours the cells were trypsinized and counted on a Sysmex microcell counter (CC110).
as §1

WiDr cells; colon tumour = experiment: In vitro panel of human tumour lines (TNO): WiDr; type: cell-based; details: about 72 hours; note: key: -: no inhibition of cell growth; +: total cell-kill
Protocol: (§2) Compounds E.O. 1, E.O. 2, E.O. 4, E.O. 4A, E.O. 8, E.O. 9, […], E.O. 33, and E.O. 35 were tested for their activity against five human tumour cell lines at the Radiobiological Institute TNO Rijswijk.
(§3) The new in vitro prescreen uses human tumour clones; it was set up by Dr. P. Lelieveld at TNO Rijswijk and comprises testing compounds in a bioliquid assay for their cytostatic activity against the following five human tumour lines:
(§4) After a continuous exposure to the drugs to be tested and to Adriamycin in `24 well tissue culture clusters, type 3524 (Costar)`, the remaining cells are fixed and stained. Using increasing drug concentrations the inhibiting concentration can be estimated qualitatively.
(§5) Cells: the human tumour cells are maintained in Dulbecco's medium supplemented with 10 percent foetal calf serum.
(§6) M and W cell suspensions: 10^5 cells/ml.
(§7) The cells were grafted into 16 mm wells for 48 hours (0.5 ml cell suspension per well was used).
(§8) Drugs: the compound to be tested was dissolved in appropriate concentrations in a mixture of Hepes-buffered Hanks' balanced salt solution and ethanol. The drug solutions (0.05 ml) were added to the different wells. The final ethanol concentration in each well was less than one percent.
(§9) The cells were continuously incubated with the compound under test at 37° in an atmosphere of 10 percent CO2 in humidified air for about 72 hours.
(§10) Determination of the inhibiting dose: the cells were fixed and stained with a solution of crystal violet in methanol/formaldehyde.

[2] = test system: T 24 cells; bladder carcinoma; experiment: In vitro panel of human tumour lines (TNO): T 24; type: cell-based; details: about 72 hours; note: key: -: no inhibition of cell growth; +: total cell-kill
Protocol: as §2, §3, §4, §5
(§11) A, T and Z cell suspensions: 5·10^4 cells/ml
as §7, §8, §9, §10

[3] = test system: A 204 cells; rhabdomyosarcoma; experiment: In vitro panel of human tumour lines (TNO): A 204; type: cell-based; details: about 72 hours; note: key: -: no inhibition of cell growth; +: total cell-kill
Protocol: as §2, §3, §4, §5, §11, §7, §8, §9, §10

IgR37 cells melanoma = experiment: In vitro panel of human tumour lines (TNO): IgR-37; type: cell-based; details: about 72 hours; note: key: -: no inhibition of cell growth; +: total cell-kill
Protocol: as §2, §3, §4, §5, §11, §7, §8, §9, §10

MCF7 breast cancer cells = experiment: In vitro panel of human tumour lines (TNO): MCF-7; type: cell-based; details: about 72 hours; note: key: -: no inhibition of cell growth; +: total cell-kill
Protocol: as §2, §3, §4, §5, §6, §7, §8, §9, §10

P 388 tumour cells = experiment: In vivo P388 experiments (Brussels); parameters: species or system mice; details: for MAX T/C: days 1 to 5
Protocol: These experiments were carried out at the Institute Jules Bordet, Brussels, on CDF, female mice. The mice were inoculated intraperitoneally (IP) with 1×10^6 P 388 tumour cells. After 24 hours, the compounds were administrated as suspensions in "Tween-80" or using saline as vehicle. Six mice were used at each dose of the compound, given on days 1 to 5 and eighteen control mice were injected with saline.

[4] = Half-wave reduction potentials / polarography (University of Utrecht); type: physicochemical; details: pH = 8 vs Ag/AgCl
Description: *The halve wave reduction potentials (E1/2) have been determined at the
Pharmaceutical Laboratory of University of Utrecht. Only the first
(quinone) reduction potential has been given.
Additional evidence for the occurrence of a bioreductive activation mechanism during the cytotoxic action of indoloquinones (II) was obtained via electrochemical studies, which have been carried out at the Pharmaceutical Laboratory of the University of Utrecht. […]

[5] = read-out: ID-50 L1210, Table VIII
[6] = read-out: ID-50 R-1, Table I, bioliquid assay
[7] = read-out: ID-50 R-1, Table VIII
[8] = 150 mg/kg, days of treatment 0,9,16
[9] = 60 mg/kg, days of treatment 0,6,13,20

Row | SMILES | IC50 (L1210 cells; [5]) [µg/mL] | IC50 [1, 7] [µg/mL] | in vitro activity score, WiDr (WiDr cells; colon tumour; 0.01 μg/ml) | in vitro activity score, WiDr (WiDr cells; colon tumour; 0.1 μg/ml) | in vitro activity score, WiDr (WiDr cells; colon tumour; 1.0 μg/ml) | in vitro activity score, T 24 ([2]; 0.01 μg/ml) | in vitro activity score, T 24 ([2]; 0.1 μg/ml) | in vitro activity score, T 24 ([2]; 1.0 μg/ml) | in vitro activity score, A 204 ([3]; 0.01 μg/ml) | in vitro activity score, A 204 ([3]; 0.1 μg/ml) | in vitro activity score, A 204 ([3]; 1.0 μg/ml) | in vitro activity score, IgR-37 (IgR37 cells melanoma; 0.01 μg/ml) | in vitro activity score, IgR-37 (IgR37 cells melanoma; 10 μg/ml) | in vitro activity score, MCF-7 (MCF7 breast cancer cells; 0.01 μg/ml) | in vitro activity score, MCF-7 (MCF7 breast cancer cells; 0.1 μg/ml) | in vitro activity score, MCF-7 (MCF7 breast cancer cells; 10 μg/ml) | in vitro activity score, MCF-7 (MCF7 breast cancer cells; 1.0 μg/ml) | further results
1 | COc1cccc2c1C(=O)c1c(O)c3c(c(O)c1C2=O)C[C@@](O)(C(=O)CO)C[C@@H]3O[C@H]1C[C@H](N)[C@H](O)[C@H](C)O1 [DXR] |  |  |  |  |  |  |  |  |  |  |  |  |  |  |  |  |  | toxic deaths (Ovarian (MRI-H-207) line; 10 mg/kg, days of treatment 0.7): 1/6
2 | O=P1(N(CCCl)CCCl)NCCCO1 (stereo not drawn) [CTX] |  |  |  |  |  |  |  |  |  |  |  |  |  |  |  |  |  | toxic deaths (Ovarian (MRI-H-207) line): 2/7
3 | CN(C)c1nc(N(C)C)nc(N(C)C)n1 [HMM] |  |  |  |  |  |  |  |  |  |  |  |  |  |  |  |  |  | toxic deaths (Ovarian (MRI-H-207) line; 150 mg/kg, days of treatment 0,2,4,6): 1/6
4 | CC(=O)OCc1c2c(n(C)c1/C=C/CO)C(=O)C=C(N1CC1)C2=O [E.O. 4A, 3-Acetoxymethyl-5-aziridino-1-methyl-2-[1H-indole-4,7-dione]prop-β-en-α-ol] | 0.15 (≈ 0.454 µM) | 0.022 (≈ 0.0666 µM) | - | - | + | - | - | + | - | - | + | - | + | - | - | + |  | IC50 [1, 6]: 0.02 µg/mL (≈ 0.0605 µM); in vitro activity score, WiDr (WiDr cells; colon tumour; 10 μg/ml): +; in vitro activity score, T 24 ([2]; 10 μg/ml): +; in vitro activity score, A 204 ([3]; 10 μg/ml): +; in vitro activity score, IgR-37 (IgR37 cells melanoma; 1.0 μg/ml): +; MAX T/C (P 388 tumour cells; 100 mg/kg): 120%
5 | CC1CN1C1=CC(=O)c2c(c(CO)c(/C=C/CO)n2C)C1=O (stereo not drawn) [E.O. 8, 3-Hydroxymethyl-1-methyl-5-propyleneamino-2-[1H-indole-4,7-dione]prop-β-en-α-ol] | 0.48 (≈ 1.59 µM) | 7.6 (≈ 25.1 µM) | - | - | - | - | - | - | - | - | - | - | + | - | - | - | - | IC50 (L1210 cells; read-out: ID-50 L1210, Table I, bioliquid assay, 48 hours): 0.5 µg/mL (≈ 1.65 µM); in vitro activity score, IgR-37 (IgR37 cells melanoma; 0.1 μg/ml): -; in vitro activity score, IgR-37 (IgR37 cells melanoma; 1.0 μg/ml): -; half-wave potential E1.2, wave I [4]: -380 mV; half-wave potential E1.2, wave II [4]: -780 mV
6 | CN(Cc1cnc2nc(N)nc(N)c2n1)c1ccc(C(=O)N[C@@H](CCC(=O)O)C(=O)O)cc1 [Methotrex., reference compound] |  |  | - |  |  |  |  |  |  | + | + | - |  | - | - | - | - | T/C % (Ovarian (MRI-H-207) line; [8]): 47%; toxic deaths (Ovarian (MRI-H-207) line; [8]): 2/7; in vitro activity score, A 204 ([3]; 10 μg/ml): +
7 | CC(=O)OC/C=C/c1c(COC(C)=O)c2c(n1C)C(=O)C(C)=C(N1CC1)C2=O [E.O. 35, 3-Acetoxymethyl-5-aziridino-1,6-dimethyl-2-[1H-indole-4,7-dione]prop-β-en-αyl acetate] | 0.55 | 0.32 | - | - | - | - | - | - | - | - | - | - | + | - | - |  | - | IC50 [1, 6]: 0.3 µg/mL; in vitro activity score, IgR-37 (IgR37 cells melanoma; 0.1 μg/ml): -; MAX T/C (P 388 tumour cells; 400 mg/kg): 131%; T/C at the optimal dose (P 388 tumour cells; optimal dose): ~130%
8 | N.N.O=C([O-])C1(C(=O)[O-])CCC1.[Pt+2] [Carboplatin] |  |  |  |  |  |  |  |  |  |  |  |  |  |  |  |  |  | toxic deaths (Ovarian (MRI-H-207) line; 60 mg/kg, days of treatment 0.6): 0/6
9 | O=c1[nH]cc(F)c(=O)[nH]1 [5FU] |  |  |  |  |  |  |  |  |  |  |  |  |  |  |  |  |  | T/C % (Ovarian (MRI-H-207) line; [9]): 63%; toxic deaths (Ovarian (MRI-H-207) line; [9]): 0/7
